Data as given in patent US10414721B1, “Inhibitor of endocannabinoid cellular reuptake” (University of Bern, priority 2018, dated 2019).
“Also recorded” adds a separate entry of the source. Like-named read-outs stand apart in the source and are kept apart here.

How the values were obtained:
Format in all cases: in vivo, mouse
[1] = test system: C57BL6/J mice; test: LC-MS/MS quantification of endocannabinoids, lipids and corticosterone after i.p. injection
Protocol: (§1) In order to investigate whether there was a link between the in vivo pharmacological effects of WOBE437 and the inhibition of EC uptake in vitro, the levels of WOBE437, AEA, 2-AG and related lipids in different tissues were quantified by LC-MS/MS. […] The Cbrain/Cplasma ratio (Kp) of WOBE437 was 0.65 after 5 min, 1.64 after 15 min and reached 1.9 after 30 and 60 min (FIGS. 4A and 4E). The peak concentration of WOBE437 in the brain was 780±267 nM, thus being in line with the bioactive concentrations determined in cellular assays. […] Only at 15 min post-injection, WOBE437 prevented the moderate increase of 2-AG induced by DMSO (FIG. 4C). […] On the contrary, 2-AG levels increased 1.7-fold compared to vehicle at 1 h post-injection (FIG. 4G). […] Repeated administrations of WOBE437 led to a significant 3-fold increase of corticosterone in the brain, which mirrors the changes observed in plasma (FIG. 4H). In peripheral organs, WOBE437 reached peak concentrations of 5-20 nmol/g tissue, without any signs of accumulation over 7 days. […] However, EC concentrations were not affected by repeated administrations of WOBE437 in peripheral tissues. Again, corticosterone levels were increased in spleen, liver and kidney.
(§2) WOBE437, AEA, 2-AG, other lipids and hormones were quantified by LC-MS/MS in different biological matrices (cells, human whole blood, rodent tissues) as reported in Chicca 2017.

[2] = Oral bioavailability and tissue distribution; conditions: for Cmax: read-out: apparent Cmax in plasma; for concentration at 20 min: oral, read-out: plasma level
Protocol: Male C57BL6/J or male BALB/c mice were orally administered by gavage with 10, 25, 50 or 100 mg/kg of WOBE437 (100 μL; olive oil and ethanol 8:2) using a metal feeding needle (20G, Kent Scientific, USA). The mice were sacrificed by decapitation after gavage administration. Brain, blood, liver, kidney and spleen were collected for the LC-MS/MS analyses. All tissues were briefly washed with ice cold PBS and immediately snap-frozen and stored at −80° C. Whole brain samples were dissected between the hemispheres. Blood samples were immediately centrifuged to obtain plasma, which was stored at −80° C.
Samples extractions and LC-MS/MS measurements were performed as previously described (Chicca et al., 2017). Briefly, tissues were weighted and transferred in to extraction tubes containing three steel beads and 0.1 M formic acid. Tissues were homogenized and rapidly transferred to glass tubes containing 1.5 mL of ethyl acetate:hexane (9:1) 0.1% formic acid and internal standards (ISs). Samples were centrifuged and the organic phase was recovered. After evaporation, the extracts were reconstituted in 200 μL of ACN:ddH2O (8:2). 10 μL of the solution were injected in the LC-MS/MS system using the same LC and ionization protocols as described (Chicca et al., 2017).

[3] = test system: BALB/c male mice; test: Tetrad test after oral administration; conditions: 50 mg/kg p.o.
Protocol: The tetrad test was performed in the following order: rectal temperature, catalepsy, locomotion and analgesia. Rectal temperature was measured before (basal) and 1 h post gavage administration by using a thermocouple probe (Physitemp Instruments Inc., USA) and results were reported as the difference (Δ) between both temperatures. The bar test was used to evaluated catalepsy by placing the mouse in an imposed position with both forelimbs resting on a bar of 4 cm high; the end point of catalepsy was considered when both front limbs were removed or remained over 120 s. Locomotor activity was determined by placing the mouse on a rotarod (Erweka, Germany) at 4 rpm, the latency to fall was measured with a cut-off time of 120 s. Each mouse was previously trained to walk over the rotarod for at least 120 s. Catalepsy and locomotion were measured in three trials. Analgesia was evaluated with the hot plate test, each mouse was placed in a 54-56° C. hot plate (Thermo Scientific, USA) with a Plexiglas cylinder, the latency to first nociceptive response (paw lick or foot shake) was measured.

[4] = test system: BALB/c male mice; test: Hot plate test after oral administration
Protocol: (§3) Acute pain was evaluated 1 h after gavage administration of WOBE437, at 10, 25, 50 and 100 mg/kg in BALB/c mice. The test was performed using a clean 54-56° C. hot plate (Thermo Scientific, USA) with a Plexiglas cylinder. The latency to show the first nociceptive response (paw lick or foot shake) was measured. In order to evaluate CB1 receptor antagonism, 5 mg/kg of rimonabant (Pharmasery AG, Switzerland) was injected intraperitoneally (i.p.) (20 μL, in DMSO) 30 min before WOBE437 administration.

[5] = Hot plate test after oral administration; conditions: male, BALB/c, mouse, in vivo; from effective doses 50 mg/kg p.o. vs 10 mg/kg i.p.; read-out: overall bioavailability compared to the i.p. administration route
Protocol: as §3

[6] = LC-MS/MS quantification of WOBE437 in tissues after i.p. injection; set-up: highest concentration in brain: unit not given here
Protocol: as §1, §2

[7] = 7 days of daily treatment, 10 mg/kg i.p.

CCCCCCC/C=C/C=C/C(=O)NCCc1ccc(OC)c(OC)c1 [WOBE437, (2E,4E)-N-[2-(3,4-Dimethoxyphenyl)ethyl]dodeca-2,4-dienamide]
brain 2-AG level increase compared to vehicle (DMSO) [1, 7]: 1.5 fold | brain AEA level increase compared to vehicle (DMSO) [1, 7]: 1.5 fold | circulating concentration of corticosterone ([1]; after 7 days): doubled | concentrations of other lipids (NAEs, AA, prostaglandins and progesterone) ([1]; brain, plasma and peripheral organs): not significantly altered | increase of corticosterone levels in brain, plasma and peripheral organs ([1]; repeated administration): 2-4 fold | increase of corticosterone in the brain ([1]; repeated administrations): 3 fold | EC concentrations in peripheral tissues ([1]; repeated administrations, 10 mg/kg): not affected; also recorded: did not significantly alter | AEA and 2-AG levels in plasma ([1]; single and repeated injection(s)): not significantly affected | 2-AG levels in peripheral organs ([1]; single injection): not altered in the spleen, but dropped significantly after 60-360 min in liver and kidney | AEA level in peripheral organs ([1]; single injection): did not change in liver, whereas in kidney and spleen it moderately diminished | brain AEA levels compared to basal level ([1]; single injection): did not change | brain 2-AG level increase compared to vehicle ([1]; single injection 10 mg/kg i.p., 1 h post-injection): 1.7 fold | brain level ([2]; 10 mg/kg p.o., 20 min, C57BL6/J): 24.7 ± 25.3 pmol/g | apparent volume of distribution (Vd) at Cmax ([2]; 50 mg/kg p.o.): 80.4 L/kg | apparent volume of distribution (Vd) at the steady state ([2]; 50 mg/kg p.o.): 609 L/kg | brain concentration 3 h after administration ([2]; 50 mg/kg p.o.): 18 pmol/g | drop of hepatic concentration between 20 and 40 min ([2]; 50 mg/kg p.o.): 4 factor | estimated concentration in brain ([2]; 50 mg/kg p.o.): 399.7 ± 154.7 nM | time until cleared from the brain ([2]; 50 mg/kg p.o.): approximately 180 min | brain levels after p.o. as compared to i.p. (times lower) ([2]; 50 mg/kg p.o. vs 10 mg/kg i.p.): approximately 10 times | highest concentration in kidney ([2]; 50 mg/kg p.o., 20 min): 2277 ± 916 pmol/g | highest concentration in liver ([2]; 50 mg/kg p.o., 20 min): 4720 ± 3273 pmol/g | highest concentration in spleen ([2]; 50 mg/kg p.o., 20 min): 1030 ± 339 pmol/g | brain level ([2]; 50 mg/kg p.o., 20 min, C57BL6/J): 534.5 ± 109.9 pmol/g | hepatic concentration ([2]; 50 mg/kg p.o., 40 min): 1080 pmol/g | Cmax ([2]; 50 mg/kg p.o.): ~2000 nM | Tmax ([2]; male, C57BL6/J, mouse, brain, plasma, po, 50 mg/kg, 50 mg/kg p.o., read-out: tmax in brain and plasma): ≤ 20 min | Tmax ([2]; male, C57BL6/J, mouse, kidney, liver, spleen, po, 50 mg/kg, 50 mg/kg p.o., read-out: tmax in kidney, liver and spleen (converted)): 20 min | Cmax ([2]; male, C57BL6/J, mouse, plasma, po, 50 mg/kg, 50 mg/kg p.o.): 1930 ± 564 nM | concentration at 20 min ([2]; male, mouse, plasma, 10 mg/kg p.o., 20 min, C57BL6/J): 47.3 ± 32.5 nM | concentration at 20 min ([2]; male, mouse, plasma, 50 mg/kg p.o., 20 min, C57BL6/J): 1730 ± 703 nM | antinociception in tetrad [3]: significant antinociception | body temperature, catalepsy or motor coordination vs vehicle [3]: No statistical differences | latency of catalepsy ([3]; 1 h, control 5.9±5.4): 10.5 ± 10.6 s | change in body temperature ([3]; 1 h, control +0.1±0.8): −0.8±0.8 °C | increase of pain threshold vs vehicle ([4]; 50 mg/kg p.o.): 61.7% | pain threshold (latency) ([4]; 50 mg/kg p.o., vehicle 5.8±0.9 s): 9.4 ± 1.9 s | pain threshold (latency) ([4]; 100 mg/kg p.o.): 11.7 ± 2.6 s | ED50 ([4]; Mus musculus, po, hot plate, read-out: estimated effective dose (ED50)): 42.5 ± 3.9 mg/kg | minimum dose to significantly increase pain threshold ([4]; p.o., hot plate): 50 mg/kg | antinociceptive effect after rimonabant pre-treatment ([4]; rimonabant 5 mg/kg i.p.): completely abolished | bioavailability [5]: 20% | peak concentration in the brain ([6]; 10 mg/kg i.p.): 780 ± 267 nM | peak concentrations in peripheral organs ([6]; 10 mg/kg i.p.): 5-20 nmol/g tissue | peak plasma concentration ([6]; 10 mg/kg i.p.): 492±103 | time of highest brain concentration ([6]; 10 mg/kg i.p.): 30 min | time of peak plasma concentration ([6]; 10 mg/kg i.p.): 15 min | brain concentration ([6]; 10 mg/kg i.p., 1 h): 652±165 pmol/g brain | Cbrain/Cplasma ratio (Kp) ([6]; 10 mg/kg i.p., after 15 min): > 1 | highest concentration in brain ([6]; 10 mg/kg i.p., after 30 min): 919±314 | concentration at 1 h ([6]; mouse, brain, ip, 1 h after a single injection, 10 mg/kg i.p., read-out: estimated brain concentration): 555 nM | concentration at 7 days ([6]; mouse, brain, ip, after 7 days of treatment, 10 mg/kg i.p. daily, read-out: estimated brain concentration): 926 nM | Kp at 1 h ([6]; mouse, brain/plasma, ip, 10 mg/kg, 10 mg/kg i.p., after 30 and 60 min, read-out: Cbrain/Cplasma ratio (Kp)): 1.9 | Kp at 5 min ([6]; mouse, brain/plasma, ip, 10 mg/kg, 10 mg/kg i.p., after 5 min, read-out: Cbrain/Cplasma ratio (Kp)): 0.65 | Kp at 0.25 h ([6]; mouse, brain/plasma, ip, 10 mg/kg, 10 mg/kg i.p., after 15 min, read-out: Cbrain/Cplasma ratio (Kp)): 1.64 | half-life ([6]; mouse, plasma, ip, 10 mg/kg i.p.): 203 min
